Experimental findings from patent EP0375451A2, “Compounds having a renin-inhibiting activity” (BEECHAM GROUP PLC, priority 1988, dated 1990) are described below.

Structures can show the parent of a compound that is named as a salt.

For the first test, the target named is T1, human renin (Homo sapiens, UniProt P00797).
T1 construct: from tissue; host or cells: human plasma from blood of healthy volunteers
T1 sequence (P00797 67-406): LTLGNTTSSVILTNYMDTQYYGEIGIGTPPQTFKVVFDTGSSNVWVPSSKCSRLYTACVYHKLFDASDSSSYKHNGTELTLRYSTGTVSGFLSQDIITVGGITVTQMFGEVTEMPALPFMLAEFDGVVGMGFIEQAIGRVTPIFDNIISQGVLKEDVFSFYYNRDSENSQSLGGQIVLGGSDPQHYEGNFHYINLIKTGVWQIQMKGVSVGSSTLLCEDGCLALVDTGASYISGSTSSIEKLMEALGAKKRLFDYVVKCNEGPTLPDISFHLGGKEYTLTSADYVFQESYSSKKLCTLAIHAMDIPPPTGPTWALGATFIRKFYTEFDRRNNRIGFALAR
The experiment in a line: In vitro human renin inhibition (renin activity in human plasma, angiotensin I radioimmunoassay). The format is biochemical.
Details: not given
As for the experimental part: In vitro human renin inhibition
Renin inhibitory activity was estimated as the percentage change in renin activity in human plasma in the presence and absence of compound. The source of plasma was blood taken from healthy volunteers. Renin activity was defined by the difference in angiotensin I levels between two halves of a sample, one incubated at 37^o and the other at 4^o for 2h. Angiotensin I levels were measured using a ¹²⁵I- angiotensin I radioimmunoassay kit (NEN/DuPont, Stevenage). Results were calculated as the mean of at least two, duplicate determinations and IC₅₀ values were calculated by linear regression analysis of at least three concentrations of compound.
Molecule `CC(=O)NCCNC(=O)C[C@H](O)[C@H](CC1CCCCC1)NC(=O)[C@H](CC(C)C)NC(=O)[C@H](Cc1ccccc1)NC(=O)CC1CS(=O)(=O)c2ccccc21` (stereo partly shown) [Example E6] came in with an IC50 of 87 nM.
Turning to `CC(C)C[C@H](NC(=O)[C@H](Cc1ccccc1)NC(=O)CCn1c(=O)[nH]c2ccccc21)C(=O)N[C@@H](CC1CCCCC1)[C@@H](O)CC(=O)NCCCn1ccnc1` [Example E41, (2,3-Dihydro-2-oxo-1H-benzimidazole-1-propanoyl)-Phe-Leu-ACHPA 3-(1-imidazolyl)propylamide .0.5CHCl₃], the IC50 was found to be 43 nM.

Still in this test, the particulars now being: human plasma from healthy volunteers; angiotensin I difference between 37° and 4° incubation for 2h; linear regression of at least three concentrations; read-out: IC₅₀.
As to `CC(C)C[C@H](NC(=O)[C@H](Cc1ccccc1)NC(=O)CC1CS(=O)(=O)c2cc(CN)ccc21)C(=O)N[C@@H](CC1CCCCC1)[C@@H](O)CC(=O)NCCCC(=O)O` (stereo partly drawn) [Example E37, (6-(Aminomethyl)-2,3-dihydro-1,1-dioxobenzothiophene-3-yl)acetyl-Phe-Leu-ACHPA-NH(CH₂)₃CO₂H .CF₃CO₂H], the IC50 was determined as 44 nM.
On the same count and under the same terms, with `CC(C)C[C@H](NC(=O)[C@H](Cc1ccccc1)NC(=O)CC1CS(=O)(=O)c2ccccc21)C(=O)N[C@@H](CC1CCCCC1)[C@@H](O)CC(=O)NCCCN1CCCC1=O` (stereo partly drawn) [Example E3, (2,3-Dihydro-1,1-dioxobenzothiophene-3-yl)acetyl-Phe-Leu-ACHPA 3-(2-oxopyrrolidin-1-yl) propylamide] the figure was 27 nM; with `COC(=O)CCCCNC(=O)C[C@H](O)[C@H](CC1CCCCC1)NC(=O)[C@H](CC(C)C)NC(=O)[C@H](Cc1ccccc1)NC(=O)CC1CS(=O)(=O)c2ccccc21` (stereo partly drawn) [Example E18, (2,3-Dihydro-1,1-dioxobenzothiophene-3-yl)acetyl-Phe-Leu-ACHPA-NH(CH₂)CO₂Me.0.5H₂O], 30 nM.
Regarding `CC(C)C[C@H](NC(=O)[C@H](Cc1ccccc1)NC(=O)CC1CS(=O)(=O)c2cc(CN)ccc21)C(=O)N[C@@H](CC1CCCCC1)[C@@H](O)CC(=O)NCCCn1ccnc1` (stereo partly drawn) [Example E52, (6-(Aminomethyl)-2,3-dihydro-1,1-dioxobenzothiophene-3-yl)acetyl-Phe-Leu-ACHPA 3-(1-imidazolyl)propylamide .3(CF₃CO₂H)], the IC50 was determined as 20 nM.
In the case of `CC(C)C[C@H](NC(=O)[C@H](Cc1ccccc1)NC(=O)CC1COc2ccc(CNCC(=O)O)cc21)C(=O)N[C@@H](CC1CCCCC1)[C@@H](O)CC(=O)NCCCn1ccnc1` (stereo partly drawn) [Example E44, (5- (Carboxymethylaminomethyl)-2,3-dihydrobenzofuran-3-yl)acetyl-Phe-Leu-ACHPA 3-(1-imidazolyl)propylamide .3(CF₃CO₂H)], the IC50 is 48 nM.
On the same count and under the same terms, with `CC(C)C[C@H](NC(=O)[C@H](Cc1ccccc1)NC(=O)CCCC1Cc2ccccc2S1(=O)=O)C(=O)N[C@@H](CC1CCCCC1)[C@@H](O)CC(=O)NCCCn1ccnc1` (stereo partly drawn) [Example E50a, 4-(2,3-Dihydro-1,1-dioxobenzothiophene-2-yl)butanoyl-Phe-Leu-ACHPA 3-(1-imidazolyl)propylamide] the figure was 14 nM; with `CC(C)C[C@H](NC(=O)[C@H](Cc1ccccc1)NC(=O)CC1CS(=O)(=O)c2ccccc21)C(=O)N[C@@H](CC1CCCCC1)[C@@H](O)CC(=O)NCCCCn1ccnc1` (stereo partly drawn) [Example E14, (2,3-Dihydro-1,1-dioxobenzothiophene-3-yl)acetyl-Phe-Leu-ACHPA 4-(1-imidazolyl)butylamide .HCl.2H₂O], 37 nM.
Still for that read-out and setting: as for `CC(C)C[C@H](NC(=O)[C@H](Cc1ccccc1)NC(=O)CCCC1Cc2ccc(N)cc2S1(=O)=O)C(=O)N[C@@H](CC1CCCCC1)[C@@H](O)CC(=O)NCCCn1ccnc1` (stereo partly drawn) [Example E34a, 4-(6-Amino-2,3-dihydro-1,1-dioxobenzothiophene-2-yl)butanoyl-Phe-Leu-ACHPA 3-(1-imidazolyl)propylamide], the figure is 12 nM; as for `CC(C)C[C@H](NC(=O)[C@H](Cc1ccccc1)NC(=O)CC1CS(=O)(=O)c2ccccc21)C(=O)N[C@@H](CC1CCCCC1)[C@@H](O)CC(=O)NCCCn1ccnc1` (stereo partly drawn) [El (a), (2,3-Dihydro-1,1-dioxobenzothiophene-3-yl)acetyl-Phe-Leu-ACHPA 3-(1-imidazolyl)propylamide .H₂O], 15 nM.
Still for that read-out and setting: as for `CC(C)C[C@H](NC(=O)[C@H](Cc1ccccc1)NC(=O)CC1COc2ccc(CN)cc21)C(=O)N[C@@H](CC1CCCCC1)[C@@H](O)CC(=O)NCCCn1ccnc1` (stereo partly drawn) [Example E13, (5-(Aminomethyl)-2,3-dihydrobenzofuran-3-yl)acetyl-Phe-Leu-ACHPA 3-(1-imidazolyl)propylamide .2(CF₃CO₂H).H₂O], the figure is 32 nM; as for `CC(C)C[C@H](NC(=O)[C@H](Cc1ccccc1)NC(=O)CC1CS(=O)(=O)c2ccc(CN)cc21)C(=O)N[C@@H](CC1CCCCC1)[C@@H](O)CC(=O)NCCCn1ccnc1` (stereo partly drawn) [Example E43, (5-(Aminomethyl)-2,3-dihydro-1,1-dioxobenzothiophene-3-yl)acetyl-Phe-Leu-ACHPA 3-(1-imidazolyl)propylamide .3CF₃CO₂H.H₂O], 12 nM.
On to `CC(C)C[C@H](NC(=O)[C@H](Cc1ccccc1)NC(=O)CC1CS(=O)(=O)c2ccccc21)C(=O)N[C@@H](CC1CCCCC1)[C@@H](O)CC(=O)NCCN1CCN(C)CC1` (stereo partly drawn) [Example E22, (2,3-Dihydro-1,1-dioxobenzothiophene-3-yl)acetyl-Phe-Leu-ACHPA 2-(4-methylpiperazin-1-yl)ethylamide .2.5H₂O], for which the IC50 was found to be 95 nM.
Consider `CC(C)C[C@H](NC(=O)[C@H](Cc1ccccc1)NC(=O)CC1CS(=O)(=O)c2ccccc21)C(=O)N[C@@H](CC1CCCCC1)[C@@H](O)CC(=O)NCCCCC(=O)O` (stereo partly drawn) [Example E19, (2,3-Dihydro-1,1-dioxobenzothiophene-3-yl)acetyl-Phe-Leu-ACHPA-NH(CH₂)₄CO₂H], for which the IC50 turned out to be 45 nM.

Still in this test, the particulars now being: read-out: IC₅₀; human plasma from healthy volunteers; angiotensin I difference between 37° and 4° incubation for 2h; linear regression of at least three concentrations.
As for `CC(C)C[C@H](NC(=O)[C@H](Cc1ccccc1)NC(=O)CC1CS(=O)(=O)c2cc(CNC(=O)OC(C)(C)C)ccc21)C(=O)N[C@@H](CC1CCCCC1)[C@@H](O)CC(=O)NCCCn1ccnc1` (stereo partly shown) [Example E51], the IC50 came to 53 nM.
